According to the NIST ThermoML archive (doi:10.1016/j.jct.2013.03.026):
Numbers after ± are expanded uncertainties.

Legend:
[1] = Molar enthalpy of transition or fusion; settings: DSC
[2] = molar heat capacity at constant pressure; settings: 298.15 K, 101.33 kPa, Drop calorimetry
[3] = DTA

SMILES | Molar enthalpy of transition or fusion ([1]; Crystal) [kcal/mol] | molar heat capacity at constant pressure ([2]; Crystal) [J/K/mol] | Triple point temperature ([3]; Crystal) [K] | other results
c1ccc(-c2ccc(-c3ccc(-c4ccc(-c5ccccc5)cc4)cc3)cc2)cc1 [1,1':4',1'':4'',1''':4''',1''''-quinquephenyl] | – | – | – | Molar enthalpy of transition or fusion ([1]; Crystal 1): 11.7 ± 0.956 kcal/mol; Molar enthalpy of transition or fusion ([1]; Crystal 2): 0.12 ± 0.0717 kcal/mol; Molar enthalpy of transition or fusion ([1]; Nematic liquid crystal): 0.382 ± 0.0956 kcal/mol; molar heat capacity at constant pressure ([2]; Crystal 2): 455.5 ± 11 J/K/mol; Triple point temperature ([3]; Crystal 1): 663.4 ± 3.9 K; Triple point temperature ([3]; Crystal 2): 642.2 ± 3.9 K; Triple point temperature ([3]; Nematic liquid crystal): 696 ± 3.9 K
c1ccc(-c2ccccc2-c2ccccc2-c2ccccc2-c2ccccc2)cc1 [o-quinquephenyl] | 7.74 ± 0.191 | 444.3 ± 10 | 428.8 ± 0.5 | –
c1ccc(-c2ccc(-c3ccccc3)cc2)cc1 [p-terphenyl] | 7.86 ± 0.215 | – | 490.9 ± 0.6 | –
c1ccc(-c2cccc(-c3ccccc3)c2)cc1 [m-terphenyl] | 6.09 ± 0.167 | – | 361.8 ± 0.7 | –
c1ccc(-c2ccccc2-c2ccccc2)cc1 [o-terphenyl] | 4.06 ± 0.12 | – | 329.4 ± 0.4 | –

Further lines, with some results ahead:

Molar enthalpy of transition or fusion ([1]; Crystal) [kcal/mol] | molar heat capacity at constant pressure ([2]; Crystal) [J/K/mol] | Triple point temperature ([3]; Crystal) [K] | SMILES | other results
7.46 ± 0.191 | 443.7 ± 10 | 387.1 ± 0.4 | c1ccc(-c2cccc(-c3cccc(-c4cccc(-c5ccccc5)c4)c3)c2)cc1 [1,1':3',1'':3'',1'':3'',1''''-quinquephenyl] | –
6.62 ± 0.191 | 359.5 ± 8.4 | 360 ± 0.4 | c1ccc(-c2cccc(-c3cccc(-c4ccccc4)c3)c2)cc1 [metaquaterphenyl] | –
6.5 ± 0.167 | 359.1 ± 8.3 | 390.6 ± 0.5 | c1ccc(-c2ccccc2-c2ccccc2-c2ccccc2)cc1 [o-quaterphenyl] | –
12.8 ± 0.359 | – | 594.4 ± 0.6 | c1ccc(-c2ccc(-c3ccc(-c4ccccc4)cc3)cc2)cc1 [1,1':4',1'':4'',1'''-quaterphenyl] | –
